Target: T1, Bcl-2 protein (Recombinant Human Bcl-2 Protein) (Homo sapiens, UniProt P10415)
T1 construct: purchased Novus NBP2-34889
Assay: Binding evaluation of mixture library compounds to Bcl-2 using AS-MS (affinity selection mass spectrometry)
Conditions: AS-MS on the mixture of 1200 library compounds, ASMS Ratio(%)=(A−C)/B×100; for ASMS ratio (%) n = 1: replicate n = 1; for ASMS ratio (%) n = 2: replicate n = 2
Method in brief: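 Readout is ASMS Ratio (%), (A−C)/B×100, from reversed-phase LC/MS of SEC-passed extracts, with protein-free unfiltered standard (B) and protein-free SEC blank (C). Recombinant human Bcl-2 at 20 μM final met ~1200 pooled compounds at […] each for 1 h, 23° C., dark, in Tris-HCl pH 7.4 buffer.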

T1 sequence (P10415 whole entry): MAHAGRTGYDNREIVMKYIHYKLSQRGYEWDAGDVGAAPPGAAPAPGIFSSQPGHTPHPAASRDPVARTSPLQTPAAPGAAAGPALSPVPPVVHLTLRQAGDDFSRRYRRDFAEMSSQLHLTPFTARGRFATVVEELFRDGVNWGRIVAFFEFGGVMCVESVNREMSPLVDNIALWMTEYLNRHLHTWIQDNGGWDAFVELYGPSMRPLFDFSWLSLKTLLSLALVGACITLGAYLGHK

Structure (SMILES)	ASMS ratio (%) n = 1 [%]	ASMS ratio (%) n = 2 [%]
CCOc1cncc(-c2cc(CN3CCN(c4ccc(C(=O)N(C)CC56CC7CC(CC(C7)C5)C6)nn4)CC3)cc(OC(F)(F)F)c2)c1 [B3A090-01, N-(1-Adamantylmethyl)-6-[4-[[3-(5-ethoxypyridin-3-yl)-5-(trifluoromethoxy)phenyl]methyl]piperazin-1-yl]-N-methylpyridazine-3-carboxamide]	5.8	−0.2
CCOc1cccc(-c2ccc(CN3CCN(c4ccc(C(=O)N(C)CC56CC7CC(CC(C7)C5)C6)nn4)CC3)c3ccccc23)c1 [B3A091-01, N-(1-Adamantylmethyl)-6-[4-[[4-(3-ethoxyphenyl)naphthalen-1-yl]methyl]piperazin-1-yl]-N-methylpyridazine-3-carboxamide]	−1.0	−16.5
CCOc1cncc(-c2ccc(CN3CCN(c4ccc(C(=O)N(C)CC56CC7CC(CC(C7)C5)C6)nn4)CC3)c3ccccc23)c1 [B3A092-01, N-(1-Adamantylmethyl)-6-[4-[[4-(5-ethoxypyridin-3-yl)naphthalen-1-yl]methyl]piperazin-1-yl]-N-methylpyridazine-3-carboxamide]	1.1	−1.9
CCOc1cccc(-c2csc(CN3CCN(c4ccc(C(=O)N(C)CC56CC7CC(CC(C7)C5)C6)nn4)CC3)c2)c1 [B3A093-01, N-(1-Adamantylmethyl)-6-[4-[[4-(3-ethoxyphenyl)thiophen-2-yl]methyl]piperazin-1-yl]-N-methylpyridazine-3-carboxamide]	−3.8	0.0
CCOc1cncc(-c2csc(CN3CCN(c4ccc(C(=O)N(C)CC56CC7CC(CC(C7)C5)C6)nn4)CC3)c2)c1 [B3A094-01, N-(1-Adamantylmethyl)-6-[4-[[4-(5-ethoxypyridin-3-yl)thiophen-2-yl]methyl]piperazin-1-yl]-N-methylpyridazine-3-carboxamide]	3.7	0.5
CCOc1cccc(C#Cc2ccccc2CN2CCN(c3ccc(C(=O)N(C)CC45CC6CC(CC(C6)C4)C5)nn3)CC2)c1 [B3A095-01, N-(1-Adamantylmethyl)-6-[4-[[2-[2-(3-ethoxyphenyl)ethynyl]phenyl]methyl]piperazin-1-yl]-N-methylpyridazine-3-carboxamide]	−4.9	−3.5
CCOc1cncc(C#Cc2ccccc2CN2CCN(c3ccc(C(=O)N(C)CC45CC6CC(CC(C6)C4)C5)nn3)CC2)c1 [B3A096-01, N-(1-Adamantylmethyl)-6-[4-[[2-[2-(5-ethoxypyridin-3-yl)ethynyl]phenyl]methyl]piperazin-1-yl]-N-methylpyridazine-3-carboxamide]	7.7	2.4
CCOc1cccc(-c2ccc(C(C)N3CCN(c4ccc(C(=O)N(C)CC56CC7CC(CC(C7)C5)C6)cc4)CC3)cc2)c1 (stereo not drawn) [B3A097-01, N-(1-Adamantylmethyl)-4-[4-[1-[4-(3-ethoxyphenyl)phenyl]ethyl]piperazin-1-yl]-N-methylbenzamide]	1.8	−5.9
CCOc1cncc(-c2ccc(C(C)N3CCN(c4ccc(C(=O)N(C)CC56CC7CC(CC(C7)C5)C6)cc4)CC3)cc2)c1 (stereo not drawn) [B3A098-01, N-(1-Adamantylmethyl)-4-[4-[1-[4-(5-ethoxypyridin-3-yl)phenyl]ethyl]piperazin-1-yl]-N-methylbenzamide]	0.6	3.0
CCOc1cccc(-c2ccc(C(C)N3CCN(c4ccc(C(=O)N(C)CC56CC7CC(CC(C7)C5)C6)cc4)CC3)c(F)c2)c1 (stereo not drawn) [B3A099-01, N-(1-Adamantylmethyl)-4-[4-[1-[4-(3-ethoxyphenyl)-2-fluorophenyl]ethyl]piperazin-1-yl]-N-methylbenzamide]	−2.6	25.2
CCOc1cncc(-c2ccc(C(C)N3CCN(c4ccc(C(=O)N(C)CC56CC7CC(CC(C7)C5)C6)cc4)CC3)c(F)c2)c1 (stereo not drawn) [B3A100-01, N-(1-Adamantylmethyl)-4-[4-[1-[4-(5-ethoxypyridin-3-yl)-2-fluorophenyl]ethyl]piperazin-1-yl]-N-methylbenzamide]	−39.8	0.0
CCOc1cccc(-c2csc(C(=O)N3CCN(c4ccc(C(=O)N(CC)CC)nn4)CC3)c2)c1 [B4J001-01, 6-[4-[4-(3-Ethoxyphenyl)thiophene-2-carbonyl]piperazin-1-yl]-N,N-diethylpyridazine-3-carboxamide]	0.0	0.0
CCOc1cncc(-c2csc(C(=O)N3CCN(c4ccc(C(=O)N(CC)CC)nn4)CC3)c2)c1 [B4J002-01, 6-[4-[4-(5-Ethoxypyridin-3-yl)thiophene-2-carbonyl]piperazin-1-yl]-N,N-diethylpyridazine-3-carboxamide]	−2.7	2.1
CCOc1cccc(-c2ccc(C(=O)N3CCN(c4ccc(C(=O)N(CC)CC)nn4)CC3)cc2C)c1 [B4J003-01, 6-[4-[4-(3-Ethoxyphenyl)-3-methylbenzoyl]piperazin-1-yl]-N,N-diethylpyridazine-3-carboxamide]	0.0	0.0

The remaining lines, values ahead:

ASMS ratio (%) n = 1 [%]	ASMS ratio (%) n = 2 [%]	Structure (SMILES)
−2.2	0.4	CCOc1cncc(-c2ccc(C(=O)N3CCN(c4ccc(C(=O)N(CC)CC)nn4)CC3)cc2C)c1 [B4J004-01, 6-[4-[4-(5-Ethoxypyridin-3-yl)-3-methylbenzoyl]piperazin-1-yl]-N,N-diethylpyridazine-3-carboxamide]
−0.4	2.1	CCOc1cccc(-c2ccc(C(=O)N3CCN(c4ccc(C(=O)N(CC)CC)nn4)CC3)cc2F)c1 [B4J005-01, 6-[4-[4-(3-Ethoxyphenyl)-3-fluorobenzoyl]piperazin-1-yl]-N,N-diethylpyridazine-3-carboxamide]
−1.0	1.5	CCOc1cccc(C#Cc2ccccc2C(=O)N2CCN(c3ccc(C(=O)N(CC)CC)nn3)CC2)c1 [B4J007-01, 6-[4-[2-[2-(3-Ethoxyphenyl)ethynyl]benzoyl]piperazin-1-yl]-N,N-diethylpyridazine-3-carboxamide]
0.0	0.0	CCOc1cncc(C#Cc2ccccc2C(=O)N2CCN(c3ccc(C(=O)N(CC)CC)nn3)CC2)c1 [B4J008-01, 6-[4-[2-[2-(5-Ethoxypyridin-3-yl)ethynyl]benzoyl]piperazin-1-yl]-N,N-diethylpyridazine-3-carboxamide]
0.0	0.0	CCOc1cccc(C#Cc2cncc(C(=O)N3CCN(c4ccc(C(=O)N(CC)CC)nn4)CC3)c2)c1 [B4J009-01, 6-[4-[5-[2-(3-Ethoxyphenyl)ethynyl]pyridine-3-carbonyl]piperazin-1-yl]-N,N-diethylpyridazine-3-carboxamide]
0.0	2.3	CCOc1cncc(C#Cc2cncc(C(=O)N3CCN(c4ccc(C(=O)N(CC)CC)nn4)CC3)c2)c1 [B4J010-01, 6-[4-[5-[2-(5-Ethoxypyridin-3-yl)ethynyl]pyridine-3-carbonyl]piperazin-1-yl]-N,N-diethylpyridazine-3-carboxamide]
−0.1	−0.9	CCOc1cccc(-c2ccccc2CCC(=O)N2CCN(c3ccc(C(=O)N(CC)CC)nn3)CC2)c1 [B4J011-01, 6-[4-[3-[2-(3-Ethoxyphenyl)phenyl]propanoyl]piperazin-1-yl]-N,N-diethylpyridazine-3-carboxamide]
−1.1	−0.8	CCOc1cncc(-c2ccccc2CCC(=O)N2CCN(c3ccc(C(=O)N(CC)CC)nn3)CC2)c1 [B4J012-01, 6-[4-[3-[2-(5-Ethoxypyridin-3-yl)phenyl]propanoyl]piperazin-1-yl]-N,N-diethylpyridazine-3-carboxamide]
2.0	3.7	CCOc1cccc(-c2ccc(C(=O)N3CCN(c4ccc(C(=O)N(CC)CC)nn4)CC3)c3ccccc23)c1 [B4J013-01, 6-[4-[4-(3-Ethoxyphenyl)naphthalene-1-carbonyl]piperazin-1-yl]-N,N-diethylpyridazine-3-carboxamide]
0.0	−0.8	CCOc1cncc(-c2ccc(C(=O)N3CCN(c4ccc(C(=O)N(CC)CC)nn4)CC3)c3ccccc23)c1 [B4J014-01, 6-[4-[4-(5-Ethoxypyridin-3-yl)naphthalene-1-carbonyl]piperazin-1-yl]-N,N-diethylpyridazine-3-carboxamide]
0.0	0.0	CCOc1cccc(-c2cc(C(=O)N3CCN(c4ccc(C(=O)N(CC)CC)nn4)CC3)cc(C(C)(C)C)c2)c1 [B4J015-01, 6-[4-[3-tert-Butyl-5-(3-ethoxyphenyl)benzoyl]piperazin-1-yl]-N,N-diethylpyridazine-3-carboxamide]
0.0	0.9	CCOc1cncc(-c2cc(C(=O)N3CCN(c4ccc(C(=O)N(CC)CC)nn4)CC3)cc(C(C)(C)C)c2)c1 [B4J016-01, 6-[4-[3-tert-Butyl-5-(5-ethoxypyridin-3-yl)benzoyl]piperazin-1-yl]-N,N-diethylpyridazine-3-carboxamide]
−0.3	−0.5	CCOc1cccc(-c2cc(C(=O)N3CCN(c4ccc(C(=O)N(CC)CC)nn4)CC3)cc(C(F)(F)F)c2)c1 [B4J017-01, 6-[4-[3-(3-Ethoxyphenyl)-5-(trifluoromethyl)benzoyl]piperazin-1-yl]-N,N-diethylpyridazine-3-carboxamide]

Source: patent US20240132431A1, “METHOD FOR ALKYLATING ACIDIC FUNCTIONAL GROUP” (Chugai Seiyaku Kabushiki Kaisha, priority 2021, published 2024)
